Measurements reported in patent US20200255492A1, “LEPTIN PEPTIDES AND THEIR USE FOR TREATING NEUROLOGICAL DISORDERS” (UNIVERSITY OF DUNDEE, priority 2017, published 2020).

What was measured:
[1] = test system: differentiated SH-SY5Y human neuronal cells; assay: MTT assay of mitochondrial activity (cell viability); type: cell-based; conditions: 10 nM; n=11
Method: The human neuroblastoma cell line, SH-SY5Y (ECACC, UK) was maintained in Dulbecco's Modified Eagle Medium supplemented with glucose ([…]) and 10% (v/v) cosmic calf serum (Fisher Scientific, UK) at 37° C. in a humidified atmosphere of 5% CO2, 95% air and allowed to reach 70-80% confluence before seeding. Cells (passage 10-18) were plated at 10 000 cells per well in 96 well tissue culture plates (Nunc, VWR, UK) and at a density of 2×10^5 cells in 35 mm dishes for protein extraction. To induce differentiation, cells were cultured in DMEM supplemented with glucose ([…]), 1% (v/v) cosmic calf serum and 10 μM retinoic acid for 5 days. Thereafter they were incubated in DMEM supplemented with glucose ([…]), serum replacement 2 (2%; Sigma, UK) and 18 μM 5-fluorodeoxyuridine to inhibit proliferation of undifferentiated cells. The 50% of the medium was changed every 2-3 days and pharmacological treatment was carried out 7 days after switching to this medium. Reagents used were (from Sigma UK unless stated) 0.1-10 nM human leptin and leptin (116-130); 0.1-10 nM leptin (22-56; Bachem; Switzerland); 10 nM leptin (116-121) leptin (117-122), leptin (124-129) or leptin (125-130; all Severn Biotech, UK); 5 μM copper chloride; […], 5 μM WP1066 or 50 nM wortmannin. All treatments were added to the culture at the same time and survival assays were carried out after 96 h treatment. Protein samples for signaling ELISA were extracted 3 h after exposure to the relevant reagents and for biomarker expression after 72 hours.
The concentration of lactate dehydrogenase (LDH) in the culture medium or the mitochondrial activity within cells was used to monitor the level of cell death, as previously (Oldreive and Doherty 2010). In certain experiments, a Crystal violet assay was used to assess total cell number. Cells were fixed in neutral buffered formalin and washed 3 times in PBS prior to staining with 0.01% crystal violet acetate for 5 min. Plates were washed 5-10 times in dH2O and cells solubilised in 100 μl dimethyl sulfoxide (DMSO) before reading the absorbance on a Biohit BP100 plate reader. For all assays, data is expressed as percentage relative to control, untreated wells to normalize for differences in plating density between individual experiments.
To confirm the findings of the LDH assay, cells were treated with Aβ1-42 alone or with a 10 nM of leptin, leptin (116-130) or the listed hexamers, and mitochondrial activity, as a measure of cell viability, determined by MTT assay. A significant increase in mitochondrial activity was detected following treatment with either leptin or leptin (116-130; both 10 nM). […] Thus for Aβ1-42-treated cells, 10 nM leptin and 10 nM leptin (116-130) increased mitochondrial activity by 32.6±5.2% and 40.9+5.8% respectively compared with Aβ1-42 alone (n=11; P<0.001; FIG. 11B); an effect that was mirrored by 10 nM leptin (116-121) and leptin (117-122); 43.61±3.9% and 40.5±3.7*% (n=11; P<0.001; FIG. 11B), but not by 10 nM leptin (124-129) or leptin (125-130) (n=11; P>0.5; FIG. 11B). This reinforces the findings from the LDH assay that similar to either leptin or leptin (116-130), treatment with leptin (116-121) or leptin (117-122) reduces neuronal death in response to AD-linked toxins in vitro.

[2] = test system: juvenile hippocampal slices (P13-21); assay: Primed burst stimulation: conversion of STP into persistent increase in synaptic transmission (fEPSP); type: cell-based, Sprague Dawley rats; conditions: 50 nM, at 40 min
Method: (§1) Parasagittal hippocampal slices (300 μm) were prepared from either P13-21 or 12-24-week-old male Sprague Dawley rats as previously (Moult et al. 2010). Brains were rapidly removed and placed in ice-cold artificial CSF (aCSF; bubbled with 95% O2 and 5% CO2) containing the following (in mm): 124 NaCl, 3 KCl, 26 NaHCO3, 1.25 NaH2PO4, 2 CaCl2, 1 MgSO4, and 10 d-glucose. Once prepared, parasagittal slices were allowed to recover at room temperature in oxygenated aCSF for 1 h before use. Slices were transferred to a submerged chamber maintained at room temperature and perfused with artificial cerebrospinal fluid at 2 ml min^−1. Standard extracellular recordings were used to monitor evoked field excitatory postsynaptic potentials (fEPSP) from stratum radiatum. The Schaffer collateral-commissural pathway was stimulated (constant voltage; 0.1 ms) at 0.033 Hz, using a stimulus intensity that evoked a peak amplitude ˜50% of the maximum. Synaptic potentials were low pass filtered at 2 kHz and digitally sampled at 10 kHz. The fEPSP slope was measured and expressed relative to baseline. Synaptic records are the average of 4 consecutive responses and stimulus artefacts are blanked for clarity. Recordings were made using an Axopatch 200B amplifier and analyzed using LTP v2.4 software. In synaptic plasticity studies, the degree of potentiation was calculated 30-35 min after HFS and expressed as a percentage of baseline±standard error of mean (SEM).
It is known that NMDA receptors contribute little to basal excitatory synaptic transmission but synaptic activation of NMDA receptors is crucial for LTP induction at hippocampal synapses (Bliss and Collingridge 1993). Previous studies indicate that lep-tin enhances the magnitude of activity-dependent LTP in acute hippocampal slices (Oomura et al. 2006) and following direct administration into the hippocampus in vivo (Wayner et al. 2004). We have also shown that leptin facilitates NMDA receptor-dependent synaptic plasticity as leptin promotes conversion of short term potentiation (STP) to hippocampal LTP (Shanley et al. 2001). […]

[3] = test system: adult hippocampal slices (12-24 weeks); assay: Excitatory synaptic transmission (fEPSP) in adult hippocampal slices; type: cell-based, Sprague Dawley rats; conditions: 25 nM; 20 min; adult (12-24 weeks) slices
Method: as §1
We have shown that leptin regulation of excitatory synaptic transmission is age-dependent. Thus in contrast to its effects in juvenile tissue, leptin (25 nM) induces a novel form of LTP in adult hippocampus (Moult and Harvey 2011). In order to verify if the leptin fragments mirror leptin action in adult tissue, the effects of the leptin fragments were examined in hippocampal slices from adult (12-24 weeks) rats.

Row | Substance | increase in mitochondrial activity compared with Aβ1-42 alone [1] | synaptic transmission after primed burst stimulation [2] | synaptic transmission [3]
1 | CSLPQT (listed as Mus musculus) [leptin (117-122)] | 40.5±3.7% |  | 
2 | SCSLPQ (listed as Mus musculus) [leptin (116-121)] | 43.61±3.9% |  | 
3 | SCSLPQTSGLQKPES (listed as Mus musculus) [leptin (116-130)] | 40.9 ± 5.8% | 143±6.4 % of baseline | 140±13 % of baseline
4 | leptin (22-56): leptin fragment amino acids 22-56 (Bachem), comparison fragment (VPIQKVQDDTKTLIKTIVTRINDISHTQSVSSKQK; UniProt P41159 22-56, looked up, fragment) [reference compound] |  | only STP was observed | 99±2 % of baseline
5 | leptin: the metabolic hormone leptin, whole (full length) leptin molecule; human leptin from Sigma in SH-SY5Y work | 32.6±5.2% | 155±6.1 % of baseline | 188±13 % of baseline
